Assay results published in patent US20040248984A1, “Use of $g(b)-adrenoceptor agonists for the treatment of neurodegenerative diseases” (priority 2001, published 2004).

Test system: Primary cultures of astrocytes
Assay: Activation of astrocytes (morphological change in primary astrocyte cultures)
Assay type: cell-based, Fischer 344 rats
Conditions: 6 hours after start of treatment, serum-free medium, microscope 200× magnification, versus polygonal flat control cells (FIG. 1/7)
Procedure: 1) Activation of Astrocytes
Primary cultures of astrocytes were obtained from the cerebral cortical tissue of newborn Fischer 344 rats within 24 hours after birth. The brains were dissected out of the vault of the cranium under sterile conditions, the cortical tissue (cortex) was isolated, and the cells were dissociated through a narrow-mesh wire netting. The cells were put into cell culture bottles and cultivated in serum-containing DMEM solution (contained fetal calf serum and a penicillin/streptomycin mixture) until the cells were confluent. Oligodendrocytes and microglia were removed by washing with cold buffer solution. The confluent astrocytes were then detached from the base of the culture bottles with a trypsin solution and seeded in a density of 20 000 cells/cm2 in Petri dishes on coverslips and cultivated in serum-containing medium until the cells were again confluent. Two days after confluence, the medium was replaced by serum-free medium and, after 24 hours, the medium was replaced again, likewise by serum-free medium. Twenty-four hours after the second replacement of medium, salmeterol was added. Six hours after the treatment, the astrocytes were photographed under the microscope with 200× magnification to document the morphological changes (FIG. 1/7).

## OCc1cc(C(O)CNCCCCCCOCCCCc2ccccc2)ccc1O (stereo not shown) [salmeterol]
  morphological changes of astrocytes (activation): activated, stellate and refractile astrocytes
